Test [1] relates to normal C57BL/6 mice. The test can be described thus: Intra-third ventricle injection of TGF-β1, GTT, ITT, food intake and body weight. The format is in vivo. The method, then:
Brain TGF-β excess impairs glucose tolerance: To study the metabolic effects of brain TGF-β excess, a pharmacological approach was first used by which TGF-β was delivered into the hypothalamic third ventricle of normal C57BL/6 mice via pre-implanted cannula. To optimize the dosage, different doses of TGF-β1 (0, 0.5, 1.0, and 4.0 ng) were injected, and TGF-β1 concentrations measured in the CSF at various time points post-injection. […] Based on this condition, overnight-fasted mice were given intra-third ventricle injections of TGF-β1 in these doses, one injection at night after food was removed, and the second injection in the following morning at 4 hours prior to glucose tolerance test (GTT). […] In sum, a pharmacological induction of brain TGF-β excess can acutely cause pre-diabetic changes including glucose intolerance and insulin resistance.
Animals. Tgfb1^lox/lox mice, Tgfbr2^lox/lox mice, Tgfb1^+/− mice, GFAP-Cre mice, and T1r4^−/− mice on C57BL/6 were obtained from Jackson (32,56-59) and continued to be maintained on C57BL/6. CMV-lox-stop-lox-Tgfb1 mice(30) obtained from Jackson were backcrossed into C57BL/6. POMC-Cre mice maintained on C57BL/6 were used in our previous research (20,60). All mice were housed in standard, pathogen-free animal facility with 12 h/12 h light and darkness cycles, and adult male mice were used in experiments of this work. Mice were maintained on normal chow since weaning, and for some experiments involving HFD feeding, a HFD (45% kcal fat, Research Diets, Inc.) was used when mice were two to three months old. Food intake and body weight of mice were measured using a laboratory scale. GTT was performed in mice through intraperitoneal (i.p.) injection of glucose at 2 g/kg body weight. ITT was performed in mice through i.p. injection of human recombinant insulin (Nova Nordisk) at the dose of 0.7 U/kg body weight. Blood glucose levels during GTT and ITT were measured with LifeScan® blood glucose monitoring system. All procedures were approved by the Institutional Animal Care and Use Committee of Albert Einstein College of Medicine.
Brain injection. […]

Test [2] has as its system normal C57BL/6 mice. Kind of test: Hyperinsulinemic-euglycemic clamp after third-ventricle TGF-β1. The format is in vivo. An excerpt: Brain TGF-β excess increases hepatic glucose production: In physiology, blood glucose levels are balanced by glucose uptake in metabolic tissues (such as muscles) and glucose production in the liver. A hyperinsulinemic-euglycemic clamp was employed to analyze if any of these metabolic processes was relevant to the pro-diabetic effect of brain TGF-β excess. In the experiment, normal C57BL/6 mice were pre-implanted with a catheter into the jugular vein and also a cannula into the hypothalamic third ventricle. Following surgical recovery, overnight-fasted mice were injected with TGF-β1 (4 ng) using the same protocol as described in FIG. 1e, and were subjected to the clamp procedure. During the clamp period, blood glucose concentrations were maintained at approximate 120-130 mg/dl, with steady insulin infusion (4 mU kg^−1 min^−1) together with various rates of 20% glucose infusion to maintain euglycemia. […] While the basal blood insulin concentrations in TGF-β-injected mice were higher which indicated insulin resistance, constant insulin infusion in the clamp elevated the blood insulin concentrations of these mice and controls to similar levels. […] Blood glucagon concentrations were similar between TGF-β1-treated mice and controls. Therefore, the brain-liver axis mediates the pro-diabetic effect of brain TGF-β excess.
Hyperinsulinemic-euglycemic clamp. Mice that were pre-implanted with cannula in the third ventricle were anesthetized, and a catheter was inserted into the right jugular vein and crossed over from the underneath and out the back of the neck. Following surgical recovery, overnight-fasted mice were injected with TGF-β1 (4 ng) vs. vehicle, once at the beginning of fasting and the other in the following morning at four hours prior to clamp. Conscious mice were then subjected to euglycemic clamp, with the blood glucose concentrations maintained at 120-130 mg/dl for four hours, followed by steady-state human insulin infusion (4 mU kg−1 min−1) together with infusion of 20% glucose at variable rates to maintain euglycemia. During the final 1 hour of the clamp, [3-^3H] glucose and 2-deoxy-D-[1-^14C] glucose (PerkinElmer) infusions were used. Blood samples were collected from tail vein. At the end of the procedure, mice were euthanized, and various tissues were removed and quickly frozen in liquid nitrogen. Plasma insulin and glucagon concentrations were analyzed with ELISA kits (Crystal Chem. and R&D Systems).

Take “TGF-β1: transforming growth factor-β1 (Sigma), cytokine dissolved in artificial cerebrospinal fluid for third-ventricle injection”: the “glucose intolerance effect, comparison of doses” value in the test on normal C57BL/6 mice [1] (4 ng) is on record as “slightly strongest”. Moreover, the “sensitivity of insulin in lowing blood glucose (ITT)” value in the test on normal C57BL/6 mice [1] (4 ng, third ventricle) was “significantly dampened”. Also, in the test on normal C57BL/6 mice [1] (each dose (0.5, 1.0, 4.0 ng), two intra-third ventricle injections, overnight-fasted), the “glucose tolerance in GTT” value is “led to glucose intolerance”. In the test with normal C57BL/6 mice [2] (4 ng, clamp, insulin 4 mU kg^−1 min^−1, on average), the “glucose infusion rate, lower than vehicle-injected mice” value turned out to be 80%. The “hepatic glucose production vs control” value with normal C57BL/6 mice [2] (basal condition) is on record as “higher”. Also, the “basal blood insulin concentrations” value with normal C57BL/6 mice [2] (basal, vs controls) was “higher”. The “rates of glucose disposal vs vehicle” value in the test on normal C57BL/6 mice [2] (clamp, 4 ng) was “similar”. The “suppression of hepatic glucose production by insulin infusion” value with normal C57BL/6 mice [2] (during clamp) is given as “failed to do so”. Moreover, the “blood glucagon concentrations vs controls” value in the test with normal C57BL/6 mice [2] (mouse, in vivo) was “similar”. Further, in the test on normal C57BL/6 mice [2] (since the first 20 min of clamp), the “glucose infusion rates vs vehicle-injected mice” value is “significantly lower”.

Values taken from patent publication US20170114128A1, “USE OF TGF-BETA ANTAGONISTS OF TREAT TYPE-2 DIABETES” (ALBERT EINSTEIN COLLEGE OF MEDICINE, INC., priority 2014, published 2017).
